Measured values published in article PMC10464555 (Journal of Enzyme Inhibition and Medicinal Chemistry, 2023).

Biological target: T1, sEH enzyme (Homo sapiens, UniProt P34913)
T1 sequence (P34913 1-555): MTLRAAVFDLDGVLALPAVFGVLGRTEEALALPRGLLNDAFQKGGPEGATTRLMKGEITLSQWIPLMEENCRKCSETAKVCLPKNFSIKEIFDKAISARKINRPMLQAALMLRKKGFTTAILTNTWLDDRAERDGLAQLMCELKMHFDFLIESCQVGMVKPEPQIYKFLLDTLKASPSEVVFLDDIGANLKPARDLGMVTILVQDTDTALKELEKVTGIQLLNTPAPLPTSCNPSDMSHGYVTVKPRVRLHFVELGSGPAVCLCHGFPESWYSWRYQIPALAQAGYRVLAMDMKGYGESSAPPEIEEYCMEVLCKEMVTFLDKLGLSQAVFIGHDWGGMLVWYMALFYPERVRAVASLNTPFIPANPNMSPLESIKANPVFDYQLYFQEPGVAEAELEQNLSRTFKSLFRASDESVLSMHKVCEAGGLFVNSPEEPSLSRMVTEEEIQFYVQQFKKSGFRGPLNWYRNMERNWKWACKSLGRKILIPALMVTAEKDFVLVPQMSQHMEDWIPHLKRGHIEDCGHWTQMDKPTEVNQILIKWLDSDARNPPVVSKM
Assay: sEH enzyme kinetics
Format: biochemical
Conditions: for Ki: Ki (μM), Dixon plots; for Inhibition type: Lineweaver–Burk plots

Ki [µM] | Inhibition type | Compound
20.9 | Competitive | O=C(CCCCCCCCc1ccc(O)cc1)c1c(O)cccc1O [Compound 19, malabaricone B]
11.1 | Competitive | O=C(CCCCCCCCc1ccc(O)c(O)c1)c1c(O)cccc1O [Compound 20, malabaricone C]
